Data as given in US20110117055A1, “Methods of Treating Hepatitis C Virus with Oxoacetamide Compounds” (priority 2009, published 2011).
Entries after “also recorded” stand apart in the source; their conditions may differ. Where two headings read alike, the source gives them in different places.

What was measured:
Jc1-luc virus = test: Luciferase compound activity assay, Jc1-luc virus in Huh7.5.1 cells; type: cell-based, HCV genotype-2a; settings: Hepatitis C virus, Huh-7.5.1
Description: Cell culture. Human hepatoma Huh-7.5.1 cells or Huh7 cells were grown at 37° C. and 5% CO2 in Dulbecco's modification of Eagle's medium supplemented with 2 mM L-glutamine, 1 mM Sodium pyruvate, 1× Non-essential amino acids mix, 100 units/ml penicillin, 100 μg/ml streptomycin, and 10% fetal bovine serum.
Virus plasmids. The chimeric full-length construct pFL-JC1, a GT2a/2a chimera consisting of structural genes from the J6CF isolate and non-structural genes from the JFH1 isolate, has been described previously. See Backes et al., J. Virol. 2010, 84:5775-89; Schaller et al., J. Virol., 2007, 81:4591-603; Koutsoudakis et al., J. Virol. 2006, 80:5308-20; Pietschmann et al., Proc. Natl. Acad. Sci., 2006, 103:7408-13. The firefly luciferase gene has been inserted to pFL-Jc1 to develop a plamid pFL-Jc1-luc for use as a reporter of viral replication. See Amako et al., J. Virol. 2009, 83:9237-46. Specifically, the pFL-JC1-luc construct can be utilized to develop an infectious HCV cell culture system to test novel HCV inhibitors, including entry inhibitors, in vitro using luciferase expression.
Preparation of infectious HCV. Jc1-luc or HCV2a/2aChRluc RNA was in vitro transcribed using T7 RiboMAX™ Express Large Scale RNA Production System (Promega). After RNA clean up (Qiagen RNeasy Mini kit), transfection was performed as previously described.
400 microliters of a Huh-7.5.1 or Huh7 cell suspension (10^7 cells/ml) was placed in a 0.4-cm cuvette with 10 μg of Jc1-luc or HCV2a/2aChRluc RNA and electroporated (Bio-Rad Gene Pulser System) using a single square wave at 260 V and 25 ms pulse length. The cells were plated in 15-cm tissue culture dishes (Corning) and supernatant was harvested and concentrated using a centrifugal filter (Amicon 100K, Millipore).
Luciferase compound activity assay. Cell culture and luciferase compound assays were performed as previously described. See Wyles et al., J. Virol. 2007, 81:3005-8; Wyles et al., Antimicrob Agents Chemother. 2009, 53:2660-2; Grünberger et al., J. Infect. Dis. 2008, 197:42-5; Wyles et al., Antimicrob Agents Chemother, 2008, 52:1862-4. Briefly, Huh7.5.1 cells were seeded into 96-well plates at a density of 10,000 cells per well in 100 μl medium. After incubating overnight for attachment, Jc1-luc virus at an MOI 0.01 was added to wells with or without compounds at the specified concentrations. All conditions were run in triplicate. After 24 hours, medium was aspirated and replaced with 100 μl of complete medium containing an identical concentration of compound(s) followed by additional 48 hour incubation. The luciferase assay (Bright-Glo; Promega) was carried out according to the manufacturer's instructions. Luciferase activity was determined using a microplate luminometer (Veritas microplate luminometer; Turner Biosystems). […]

[1] = Cytotoxicity of anti-HCV compounds (CC50, Table 4); settings: human, Huh7.5.1 cells
HCV2aChLuc virus = test: In vitro HCVcc entry assay: HCV2aChLuc virus infection of Huh7 cells, Renilla luciferase read-out; type: cell-based, HCV genotype 2a; settings: for IC50: Hepatitis C virus
[2] = system: HCV genotype 1b subgenomic replicon; test: HCV replicon assay (HCV1b replicon cells, NS5A ELISA); type: cell-based; settings: 3 days
Description: Alternatively, Hut1b cells (Huh7 cells stably replicating HCV genotype 1b subgenomic replicon) were treated with serial dilutions of the test compound for 72 hours. Replication efficiency was monitored by ELISA assay using anti-HCV NS5A monoclonal antibody (Virogen).
Increasing amounts of compound were inoculated onto HCV1b replicon cells and incubated for 3 days. Following incubation, HCV replication was monitored with NS5A protein expression by ELISA.

[3] = system: Bovine viral diarrhea virus (BVDV); test: BVDV plaque-forming assay in MDBK cells; type: cell-based; settings: even at 1 μM
Description: Bovine viral diarrhea virus (BVDV) is a closely related virus to HCV, belonging to the same Family, Flaviviridae. To validate the specificity of antiviral activity, BVDV infection was done with MDBK cells in the presence of compounds provided herein. MDBK cells (70 to 80% confluent) were infected with a diluted virus. Following 1 h of adsorption at 37° C., cells were washed once with DMEM, overlaid with 1.5% low-melting-point (LMP) agarose (Gibco-BRL) in MEM containing 5% HS, and incubated at 37° C. To assay for plaque-forming virus, after 3 days monolayers were fixed with 3.7% formaldehyde for 2 h at room temperature, the agarose plugs were removed, and the monolayers were stained with crystal violet.

HCV1a/2a chimeric virus = test: HCV entry assay with HCV1a/2a chimeric virus; type: cell-based, HCV genotype 1a
From the text: Since HCV genotype 1 is the most prevalent genotype among the variants of HCV, we constructed an HCV1a/2a chimeric infectious clone with two cell-culture adaptive mutations introduced. Sequences for the structural proteins (including C, E1, and E2), p7, and NS2 were derived from HCV genotype 1a H77 strain. The rest of nonstructural proteins (NS3 to NS5B) and 3′ NTR were derived from HCV genotype 2a JFH strain. 5′NTR was originated from HCV2aJ6 (FIG. 7). […] Therefore, both HCV1a/2aCh virus and HCV1a/2aChLuc virus with Y361H and Q1251L mutations were successively produced in Huh7 cells and used for HCV entry assay.

HCV [4] = test: Combination of viral entry inhibitor with IFN-α, HCVcc infection system, luciferase assay; type: cell-based; settings: Huh7 cells, 72 hrs
Description: The current standard of care for the treatment of chronic hepatitis C is the combination of pegylated IFN-α (interferon-alpha) and ribavirin. […] Huh7 cells were incubated with various concentrations of Compound 1 or interferon alone, or combinations of both for 72 hrs, and the anti-HCV activity was measured by luciferase assays. The same was experiment was performed for Compound 5.

[5] = system: HCV1a chimeric virus and 2a chimeric virus; test: Combination of viral entry inhibitor with ribavirin; type: cell-based, HCV; settings: ribavirin 15 μM
Description: Varying amounts of each compound were coincubated with a high concentration of ribavirin (15 μM).

HCV [6] = test: Combination of viral entry inhibitor with HCV protease inhibitor VX-950; type: cell-based; settings: fixed ratio based on EC50
Description: Additional combination studies of Compound 1 and Compound 5 with the HCV NS3 protease inhibitor VX-950 were conducted. Compound 1 and Compound 5 were tested singly and in combination with VX-950. The ratio of the two compounds, based on the compound's EC50, remained fixed across the dosing range. The potential cytotoxicity of individual compounds was assessed with a luminescent ATP-based cell viability assay (Cell Titer-Glo; Promega). Cell culture and luciferase compound assays were performed as previously described in Example 3.
Compound interactions were quantified by the approach described by Chou and Talalay, relying on the median effect principle and the multiple-drug effect equation. […] Isobolograms were generated for each combination tested and were used to determine the additivity, synergism or antagonism of inhibitor combinations. Combination indices (CI) were determined with Calcusyn (Biosoft) for each experiment at the EC50, EC75, and EC90 of the combination. By convention, a CI of <0.9 was considered synergistic, a CI of ≧0.9 or ≦1.1 was considered additive, and a CI of >1.1 was deemed antagonistic. […] Combination indices (CI) were determined with Calcusyn (Biosoft) for each experiment at the EC50, EC75, and EC90 of the combination. By convention, a CI of <0.9 was considered synergistic, a CI of ≧0.9 or ≦1.1 was considered additive, and a CI of >1.1 was deemed antagonistic.
HCV2aChLuc (NS3:A156S) = test: Infectivity of protease mutant virus versus wild type in the presence of compounds; type: cell-based, HCV genotype 2a; settings: HCV2aChLuc (NS3:A156S) vs wild type HCV2aChLuc
From the text: Therefore, we introduced A156S mutation in the backbone of HCV2aChLuc genome and investigated the infectivity of the mutant virus in the presence of compounds.

[7] = system: HCV2aCh (E2:G451R) mutant virus; test: E2:G451R mutant virus infectivity, luciferase assay; type: cell-based, HCV genotype 2a; settings: E2:G451R vs parental
From the text: Since SR-B1 is also known to be one of the essential cellular receptors required for HCV entry, we were interested to know if Compounds 1 and 5 inhibits HCV entry via SR-B1. HCV E2 protein interaction with SR-B1 is believed to occur via hypervariable region 1 located within the N-terminal region of the E2 glycoprotein. Zhong and colleagues reported that a glycine-to-arginine mutation at position 451 (G451R) in E2 promoted JFH-1 infectivity (J. Viol. 2006, 80:11082). […] We introduced the E2:G451R mutation into the backbone of HCV2aCh (FIG. 13a) to test whether this mutation may alter the inhibitory effect of Compounds 1 and 5 on HCV entry mediated by SR-B1.

HCV2a/2aChRluc virus = test: Compound 5 with ribavirin or VX950 in the HCV2a/2aChRluc system; type: cell-based, HCV genotype 2a; settings: ribavirin alone, 15 μM
Description: 100 μl of serially diluted compound solutions (100, 30, 10, 3, 1, 0.3, and 0.1 nM) was inoculated onto Huh-7 cells in a 96-well plate. Subsequently, 100 ul (TCID50, ˜0.6) of HCV2a/2aChRluc virus was added onto the cells. After co-incubation for 72 hrs, Renilla luciferase expression was determined (Renilla Luciferase Assay, Promega) and reported as relative light units (RLU).
Data analysis. Determinations of compound interactions were quantified based on the median-effect principle described by Chou and Talalay. Chou T., Talalay P., Adv. Enzyme. Regul., 1984, 22:27-55. Combination indices (CIs) were determined using Calcusyn (Biosoft) for each experiment at the EC50, EC75, and EC90 levels. Five replicates per condition were evaluated. A CI<0.9 was considered synergistic, a CI≧0.9 and ≦[…] was considered additive, and a CI>1.1 was deemed antagonistic.

[8] = Huh-7, read-out: Activity class (IC50), tested according to the method of Example 3

Question: Which results are given for `C[C@@]1(O)[C@H](O)[C@@H](CO)O[C@H]1n1cnc2c(N)ncnc21` [2′-C-methyladenosine, reference compound]?
Answer: EC50 (Jc1-luc virus): 252 ± 33.5 nM; CC50 [1]: > 100000 nM

Question: For `COc1ccc2c(O[C@@H]3C[C@H]4C(=O)N[C@]5(C(=O)O)C[C@H]5/C=C\CCCCC[C@H](NC(=O)OC5CCCC5)C(=O)N4C3)cc(-c3csc(NC(C)C)n3)nc2c1` [BILN2061, reference compound], which EC50 (Jc1-luc virus) is on record?
Answer: 492 ± 56.7 nM

Question: And the CC50 [1]?
Answer: 35000 nM

Question: What does the source list for `COc1ccc(C(C)(C)C)cc1NC(=O)C(=O)c1ccc(OCCN2CCOCC2)c2ccccc12` [Compound 1, N-(5-tert-butyl-2-methoxyphenyl)-2-(4-(2-morpholinoethoxy)naphthalen-1-yl)-2-oxoacetamide]?
Answer: IC50 (HCV2aChLuc virus; Huh-7, 72 h, read-out: observed IC50, Huh7 cells co-incubated with HCV2aChRluc virus and compound for 3 days, repeated assays (n>30)): 0.2 to 2 nM; IC50 (HCV2aChLuc virus; [8]): < 5 nM; inhibitory effect on HCV2aChLuc viral entry (HCV2aChLuc virus; Huh7 cells, 3 days): dose-dependent inhibitory effect; also recorded: dose-dependent inhibition; effect on HCV replication (NS5A protein expression by ELISA) [2]: did not measurably inhibit; also recorded: no measurable effect; inhibitory effect on BVDV infection [3]: no measurable inhibitory effect; inhibition of HCV1a chimeric virus (HCV1a/2a chimeric virus; compared with HCV2a chimeric virus): inhibited; effect of combination with IFN-α on inhibition of HCV infection in cell culture (HCV [4]): additive to moderate synergistic effect; effect of combination with ribavirin [5]: no antagonistic effect; effect of combination with VX-950 (HCV [6]): additive to slightly synergistic effects; resistance of NS3:A156S mutant virus versus wild type (inhibition of infectivity) (HCV2aChLuc (NS3:A156S)): no significant difference; sensitivity of E2 mutant virus relative to parental virus, luciferase assay for viral infectivity [7]: greater resistance

Question: With `COc1c(NC(=O)C(=O)c2ccc(-c3ccc(N(C)C)nc3)c3ccccc23)cc(C(C)(C)C)cc1NS(C)(=O)=O` [Compound 125] as the molecule, how does the IC50 (HCV2aChLuc virus; [8]) read?
Answer: > 500 nM

Question: Which IC50 (HCV2aChLuc virus; [8]) does the source give for `COc1ccc(C(C)(C)C)cc1NC(=O)C(=O)c1ccc(-c2ccc(N(C)C)nc2)c2ccccc12` [Compound 126] here?
Answer: > 500 nM

Question: Which IC50 (HCV2aChLuc virus; [8]) does the source give for `COc1ccc(C(C)(C)C)cc1NC(=O)C(=O)c1ccc(-c2cccnc2)c2ccccc12` [Compound 127] here?
Answer: > 500 nM

Question: Which IC50 (HCV2aChLuc virus; [8]) does the source give for `COc1c(NC(=O)C(=O)c2ccc(Br)c3ccccc23)cc(C(C)(C)C)cc1NS(C)(=O)=O` [Compound 128] here?
Answer: > 500 nM

Question: With `CNc1ccc(-c2ccc(C(=O)C(=O)Nc3cc(C(C)(C)C)cc(C(=O)NC4CC4)c3OC)c3ccccc23)cn1` [Compound 130] as the molecule, how does the IC50 (HCV2aChLuc virus; [8]) read?
Answer: > 500 nM

Question: With `CNc1ccc(-c2ccc(C(=O)C(=O)Nc3cc(C(C)(C)C)cc(NS(C)(=O)=O)c3OC)c3ccccc23)cn1` [Compound 131] as the molecule, how does the IC50 (HCV2aChLuc virus; [8]) read?
Answer: > 500 nM

Question: For `COc1c(N)cc(C(C)(C)C)cc1NC(=O)C(=O)c1cccc2ccccc12` [Compound 132], which IC50 (HCV2aChLuc virus; [8]) is on record?
Answer: > 500 nM

Question: Which IC50 (HCV2aChLuc virus; [8]) does the source give for `COc1ccc(C(C)(C)C)cc1NC(=O)C(=O)c1ccc(Br)c2ccccc12` [Compound 134] here?
Answer: 5 to 500 nM

Question: With `COc1c(NC(=O)C(=O)c2ccc(Br)c3ccccc23)cc(C(C)(C)C)cc1C(=O)NC1CC1` [Compound 135] as the molecule, how does the IC50 (HCV2aChLuc virus; [8]) read?
Answer: < 5 nM

Question: With `CNc1ccc(-c2ccc(C(=O)C(=O)Nc3cc(C(C)(C)C)ccc3OC)c3ccccc23)cn1` [Compound 136] as the molecule, how does the IC50 (HCV2aChLuc virus; [8]) read?
Answer: < 5 nM

Question: With `CNc1ccc(-c2ccc(C(=O)C(=O)Nc3cc(C(C)(C)C)cc(C(N)=O)c3OC)c3ccccc23)cn1` [Compound 137] as the molecule, how does the IC50 (HCV2aChLuc virus; [8]) read?
Answer: < 5 nM

Question: Which IC50 (HCV2aChLuc virus; [8]) does the source give for `CCNC(=O)c1cc(C(C)(C)C)cc(NC(=O)C(=O)c2ccc(-c3ccc(NC)nc3)c3ccccc23)c1OC` [Compound 138] here?
Answer: < 5 nM

Question: Which “resistance of NS3:A156S mutant virus versus wild type (inhibition of infectivity)” value (HCV2aChLuc (NS3:A156S)) does the source give for `CCC[C@H](NC(=O)[C@@H]1[C@H]2CCC[C@H]2CN1C(=O)[C@@H](NC(=O)[C@@H](NC(=O)c1cnccn1)C1CCCCC1)C(C)(C)C)C(=O)C(=O)NC1CC1` [VX-950, reference compound] here?
Answer: high level resistance; also recorded: resistant

Question: And the “resistance of NS3:A156S mutant virus versus wild type (inhibition of infectivity)” value (HCV2aChLuc (NS3:A156S); listed as VX950)?
Answer: highly resistant

Question: For `NC(=O)c1ncn([C@@H]2O[C@H](CO)[C@@H](O)[C@H]2O)n1` [ribavirin, reference compound], which “inhibitory effect on infectivity of 2a chimeric virus” value (HCV2aChLuc virus; ribavirin alone, 15 μM) is on record?
Answer: did not have significant inhibitory effect

Question: And the “inhibitory effect on infectivity of HCV1a chimeric virus” value (HCV1a/2a chimeric virus; ribavirin alone, 15 μM)?
Answer: did not have significant inhibitory effect

Question: What about the “inhibitory effect on the infectivity of 2a chimeric virus” value (HCV2a/2aChRluc virus) of the same molecule?
Answer: did not have significant inhibitory effect
